Test results reported in patent publication US4782070A, “Cerebral dysfunction therapeutic agent, which comprises a dihydropyridine compound” (Fujisawa Pharmaceutical Co., Ltd., priority 1986, dated 1988).

Experiments:
[1] = test system: Production of Lipid Peroxide in cerebral mitochondria of rat; test: Effect on Production of Lipid Peroxide in cerebral mitochondria of rat; assay type: biochemical, male Wistar rats; settings: 37° C., 1 hour
Method: Cerebral mitochondria of male Wistar rats were isolated and mixed with a mixture of ascorbic acid (100 μM), ferrous sulfate (10 μM), ferric sulfate (20 μM) and test compound, and the mixture was incubated at 37° C. for 1 hour. The amount of malondialdehyde produced in the incubated mixture was measured by thiobarbituric acid method [Shimada et al., Biochim. Biophy. Acta, vol. 489, pp 163-172 (1977)].

vertebral artery of dog = test: Effect on blood flow of the vertebral artery of dog; assay type: in vivo, Mongrel dogs
Method: Mongrel dogs of either sex (5-10 dogs per group), weighing 8-18 kg, were anesthetized with pentobarbital sodium (35 mg/kg, ip) and an electromagnetic flowprobe was fitted to the right vertebral artery and the blood flow of the vertebral artery was measured by a flow meter. Polyethylene cannulae were inserted into the femoral artery for measurement of blood pressure and into the femoral vein or the duodenum (after celiotomy) for administration of test compounds respectively.
Test compounds were dissolved in a mixture of ethanol, polyethylene glycol and distilled water, and administered in a volume of 0.2 ml/kg (iv) or 0.5 ml/kg (id). Incidentally, dogs were fasted for 18 hours in case of intraduodenum administration.

[2] = test system: isolated canine basilar artery; test: Effect on isolated canine basilar artery (relaxation of KCl contraction); parameters: species or system mongrel dogs; settings: Canis lupus familiaris; dose inducing 50% relaxation; contraction by 35 mM KCl; papaverine 0.1 mM = 100%; mean±standard error; read-out: ED50 (the source's name)
Method: Under pentobarbital sodium anesthesia (35 mg/kg, ip or 30 mg/kg, iv), the basilar arteries (outside diameter: 1.0-1.5 mm) were isolated from mongrel dogs (weighing 8-18 kg) of either sex (6 dogs per group) and cut spirally (width 1 mm×length 15-20 mm). The spiral strips were suspended in a Tyrode's solution aerating with a gas mixture of 95% oxygen and 5% carbon dioxide, and the resting tension was adjusted to 0.5 g. After 1 hour, 35 mM potassium chloride was added to the organ bath to contract the arteries. The cumulative concentrations of the test compound, dissolved in a mixture of ethanol, polyethylene glycol and distilled water, were then added. Finally 0.1 mM papaverine was given to determine maximum relaxation.

[3] = test system: ischemic cerebral cortex of rat; test: Effect on blood flow in ischemic cerebral cortex of rat; assay type: in vivo, Male Wistar rats; settings: po; for Increase in Blood Flow (Time-course of Vasodilation in Cortex of Occlusion Side): 1 mg/kg
Method: Male Wistar rats (5 rats per group), weighing 229-300 g, were anesthetized with thiopental sodium (50 mg/kg, ip). A skin incision was made in the middle of the right external auditory canal and the orbit, and a craniectomy (diameter: 2-2.5 mm) was made, using a dental drill, in the middle of the foramen ovale and the foramen opticum. After the dura was opened, the middle cerebral artery was exposed and occluded by electrocauterization using bipolar cautery.
After closure of the surgical wound, aminobenzylpenicillin (200 mg/kg) was divisionally administered into the operated part and subcutaneously.
One week after the surgery, the rats were anesthetized with urethane (1.25 g/kg, sc) and cannulae for artificial respiration and for measurement of blood pressure were inserted into the trachea and into the right femoral artery respectively, and then a stomach tube for administration of test compounds was inserted into stomach. The rats were fixed to stereotactic head-holders and craniectomies (diameter: 0.5 mm) were made on both sides of parietal skull, and then electrodes for measurement of local cerebral blood flow were inserted into right and left cerebral cortex (A=5, L=±5.0, H=2).
The blood flows of the ischemic (occlusion side) and non-ischemic (non-occlusion side) cerebral cortex of the rats used in this test were 17.4±4.5 and 51.4±1.2 ml/brain 100 g/minute, respectively. Test Compounds were dissolved in 100% polyethylene glycol and administered orally in a volume of 1 ml/kg.
The blood flow was calculated according to the following calculating formula after obtaining a half life (t1/2) from the clearance curve. [formula] λ: partition coefficient of hydrogen gas between blood and tissues (=1.0)
t1/2: a half life of concentration of hydrogen gas in brain

basilar artery = test: Remitting effect on a model of vasospasm after subarachnoid hemorrhage; assay type: in vivo, Mongrel cats; settings: femoral vein
Method: Mongrel cats of either sex (3-5 cats per group) were anesthetized with pentobarbital sodium (60 mg/kg, sc) and tracheal cannulae were inserted, and the test was carried out under spontaneous respiration. Following transcervical, transclival approach, the canine basilar artery was exposed by opening the dura and arachnoid maters, using an operating microscope. 30 Minutes after the surgery, a mixture of an equal volume of blood and cerebrospinal fluid (CSF) (0.2 ml) preincubated under an aseptic condition (37° C., 6-7 days) was applied on the surface of canine basilar artery. At the same time, the test compound [dissolved in a mixture of ethanol, polyethylene glycol and distilled water (2:1:7, v/v/v), administration volume: 0.2 ml] or only vehicle was administered into the right femoral vein. After 10 minutes, the blood-CSF mixture was carefully removed and microphotographs of the canine basilar artery were taken with the passage of time, and the inside diameter of the artery was measured from the microphotographs.

ischemic brain = settings: Occluded rat, 1.0 mg/kg sc once a day for 3 days
Method: Test compounds (1.0 mg/kg) (dissolved in polyethylene glycol, administration volume: 1 ml/kg) or vehicle was administered sc once a day for 3 days beginning from the fifth day after the surgery. One hour after the last administration, the rats were frozen in liquid nitrogen and then the whole brains of the both side excluding the cerebellum were isolated separately. The right hemisphere was homogenized with ice-cooled 6% perchloric acid (20 times in volume), centrifuged (3000 r.p.m., 10 minutes at 4° C.) and then the supernatant was neutralized with 5M potassium carbonate.
After the neutralization, the supernatant was centrifuged again and the concentrations of adenosine triphosphate (ATP) and lactic acid included in the resulting supernatant were measured by enzymatic assay.

cerebral circulation = settings: cited from earlier work
[4] = test system: rat with transient cerebral ischemia; settings: cited from earlier work

| Structure (SMILES) | Time-course of Changes of Blood Flow (vertebral artery of dog; 32 μg/kg, iv, 5 minutes) [%] | Time-course of Changes of Blood Flow (vertebral artery of dog; 32 μg/kg, iv, 10 minutes) [%] | Time-course of Changes of Blood Flow (vertebral artery of dog; 32 μg/kg, iv, 20 minutes) [%] | Time-course of Changes of Blood Flow (vertebral artery of dog; 32 μg/kg, iv, 30 minutes) [%] | Time-course of Changes of Blood Flow (vertebral artery of dog; 32 μg/kg, iv, 60 minutes) [%] | Time-course of Changes of Blood Flow (vertebral artery of dog; 32 μg/kg, iv, 90 minutes) [%] | Time-course of Changes of Blood Flow (vertebral artery of dog; 32 μg/kg, iv, 120 minutes) [%] | Maximum Changes of Blood Flow (vertebral artery of dog; iv, 3.2 μg/kg) [%] | Maximum Changes of Blood Flow (vertebral artery of dog; iv, 10 μg/kg) [%] | Maximum Changes of Blood Flow (vertebral artery of dog; iv, 32 μg/kg) [%] | EC50 [2] [nM] | Increase in Blood Flow (Time-course of Vasodilation in Cortex of Occlusion Side) ([3]; 15 minutes) [%] | Increase in Blood Flow (Time-course of Vasodilation in Cortex of Occlusion Side) ([3]; 30 minutes) [%] | Increase in Blood Flow (Time-course of Vasodilation in Cortex of Occlusion Side) ([3]; 45 minutes) [%] | Increase in Blood Flow (Time-course of Vasodilation in Cortex of Occlusion Side) ([3]; 60 minutes) [%] | Increase in Blood Flow (Time-course of Vasodilation in Cortex of Occlusion Side) ([3]; 90 minutes) [%] | Increase in Blood Flow (Time-course of Vasodilation in Cortex of Occlusion Side) ([3]; 120 minutes) [%] | Maximum Increase in Blood Flow ([3]; Non-occlusion side, 0.1 mg/kg) [%] | Maximum Increase in Blood Flow ([3]; Non-occlusion side, 1.0 mg/kg) [%] | Maximum Increase in Blood Flow ([3]; Occlusion side, 0.1 mg/kg) [%] | also measured |
| --- | --- | --- | --- | --- | --- | --- | --- | --- | --- | --- | --- | --- | --- | --- | --- | --- | --- | --- | --- | --- | --- |
| COC(=O)C1=C(C#N)NC(C)=C(C(=O)OC(C)C)C1c1cccc([N+](=O)[O-])c1 (stereo not drawn) [Dihydropyridine Compound A, Isopropyl ester of 6-cyano-5-methoxycarbonyl-2-methyl-4-(3-nitrophenyl)-1,4-dihydropyridine-3-carboxylic acid] | 109.6 ± 18.3 | 96.7 ± 16.2 | 81.3 ± 15.5 | 77.7 ± 12.5 | 71.2 ± 17.5 | 61.4 ± 25.7 | 52.1 ± 23.1 | 39.2 ± 7.2 | 86.4 ± 20.6 | 109.6 ± 18.3 | 0.33 ± 0.04 | 17.8 ± 2.4 | 27.4 ± 3.7 | 32.6 ± 4.6 | 28.3 ± 2.5 | 21.6 ± 6.4 | 17.5 ± 7.3 | 13.6 ± 1.7 | 26.1 ± 4.8 | 12.6 ± 3.1 | Inhibition of Production of Lipid Peroxide ([1]; 2.6 × 10^-4 (M)): 100.0%; Inhibition of Production of Lipid Peroxide ([1]; 2.6 × 10^-5 (M)): 96.94 ± 1.03%; Time-course of Changes of Blood Flow (vertebral artery of dog; 32 μg/kg, iv, 180 minutes): 31.0 ± 15.7%; Maximum Changes of Blood Flow (vertebral artery of dog; id, 10 μg/kg): 17.2 ± 6.0%; Maximum Changes of Blood Flow (vertebral artery of dog; id, 32 μg/kg): 39.7 ± 13.1%; Maximum Changes of Blood Flow (vertebral artery of dog; id, 100 μg/kg): 89.3 ± 11.5%; Maximum Increase in Blood Flow ([3]; Occlusion side, 1.0 mg/kg): 32.6 ± 4.6%; Time-course of Changes of the Diameter of the Artery (basilar artery; 10 μg/kg, 15 minutes): 17.0 ± 4.5%; Time-course of Changes of the Diameter of the Artery (basilar artery; 10 μg/kg, 30 minutes): 17.1 ± 4.6%; Time-course of Changes of the Diameter of the Artery (basilar artery; 10 μg/kg, 45 minutes): 18.3 ± 5.3%; Time-course of Changes of the Diameter of the Artery (basilar artery; 10 μg/kg, 60 minutes): 17.8 ± 3.8%; Time-course of Changes of the Diameter of the Artery (basilar artery; 10 μg/kg, 90 minutes): 15.5 ± 3.2%; Time-course of Changes of the Diameter of the Artery (basilar artery; 10 μg/kg, 120 minutes): 17.1 ± 5.1%; Time-course of Changes of the Diameter of the Artery (basilar artery; 100 μg/kg, 15 minutes): 16.6 ± 7.6%; Time-course of Changes of the Diameter of the Artery (basilar artery; 100 μg/kg, 30 minutes): 15.1 ± 5.1%; Time-course of Changes of the Diameter of the Artery (basilar artery; 100 μg/kg, 45 minutes): 25.9 ± 7.5%; Time-course of Changes of the Diameter of the Artery (basilar artery; 100 μg/kg, 60 minutes): 24.4 ± 7.5%; Time-course of Changes of the Diameter of the Artery (basilar artery; 100 μg/kg, 90 minutes): 21.6 ± 7.3%; Time-course of Changes of the Diameter of the Artery (basilar artery; 100 μg/kg, 120 minutes): 25.5 ± 7.9% |
| COC(=O)C1=C(C)NC(C)=C(C(=O)OCCN(C)Cc2ccccc2)C1c1cccc([N+](=O)[O-])c1 (stereo not drawn) [Nicardipine, reference compound] | 91.7 ± 14.8 | 73.4 ± 15.2 | 48.1 ± 13.2 | 37.0 ± 10.4 | 23.0 ± 17.7 | 8.2 ± 10.8 | -0.5 ± 8.9 | 31.4 ± 5.2 | 77.8 ± 17.4 | 91.7 ± 14.8 | 0.7 ± 0.07 | 6.2 ± 1.8 | 13.4 ± 2.8 | 15.9 ± 2.5 | 11.6 ± 2.9 | 8.8 ± 4.2 | 9.1 ± 5.3 | 8.9 ± 3.2 | 20.5 ± 5.1 | 6.4 ± 1.3 | Maximum Changes of Blood Flow (vertebral artery of dog; id, 320 μg/kg): 33.7 ± 14.3%; Maximum Changes of Blood Flow (vertebral artery of dog; id, 1000 μg/kg): 56.0 ± 28.5%; Maximum Changes of Blood Flow (vertebral artery of dog; id, 3200 μg/kg): 131.3 ± 36.0%; ATP (ischemic brain; vehicle 1.97 ± 0.06, normal rat 2.38 ± 0.13): 1.92 ± 0.11 μmol/brain 1 g; Lactic acid (ischemic brain; vehicle 3.84 ± 0.28, normal rat 1.83 ± 0.18): 3.84 ± 0.14 μmol/brain 1 g; Maximum Increase in Blood Flow ([3]; Occlusion side, 1.0 mg/kg): 15.9 ± 2.5%; duration of improving activity of cerebral circulation (cerebral circulation): short; improving activity of cerebral circulation (cerebral circulation): have improving activity of cerebral circulation |
| COCCOC(=O)C1=C(C)NC(C)=C(C(=O)OC(C)C)C1c1cccc([N+](=O)[O-])c1 (stereo not drawn) [nimodipine] | – | – | – | – | – | – | – | – | – | – | – | – | – | – | – | – | – | – | – | – | brain ATP content after reperfusion ([4]; after reperfusion): improves; electroencephalogram after reperfusion ([4]; after reperfusion): improves; electroencephalogram and brain ATP content during ischemia ([4]; during ischemia): not improve them during ischemia; liberation of free fatty acids ([4]; same model): no effect; improving activity of cerebral circulation (cerebral circulation): have improving activity of cerebral circulation |
